Assay results reported in patent EP0090603A2, “Antibacterial compounds” (BEECHAM GROUP PLC, priority 1982, dated 1983).

Tests used:
E. coli E1 = test: MIC against Veterinary Bacteria, in vitro agar dilution; conditions: […], 10^4 organisms, 18 hours at 37°C
Description: (§1) The activity of the compounds of the Examples against various veterinarily important bacteria, was assayed in vitro using two-fold serial dilutions in Diagnostic Sensitivity Test Agar inoculated with 10^4 organisms.

Past. multocida PA2 = test: as above; conditions: […], 10^4 organisms, 18 hours at 37°C
Description: as §1

[1] = test system: M. suipneumoniae PW/C/210; test: MIC against Mycoplasma, in vitro agar dilution; assay type: cell-based; conditions: Friis broth solidified with 0.9% agarose, 10^3 to 10^5 C.F.U., 6 days at 37°C
[2] = test system: Corynebacterium pyogenes CY1; test: MIC against Veterinary Bacteria, in vitro agar dilution; conditions: 10^4 organisms, 18 hours at 37°C
Description: as §1

M. suipneumoniae JF 435 = test: MIC against Mycoplasma, in vitro agar dilution; assay type: cell-based; conditions: Friis broth solidified with 0.9% agarose, 10^3 to 10^5 C.F.U., 6 days at 37°C
[3] = test system: Strep. suis (group D) SPS11; test: MIC against Veterinary Bacteria, in vitro agar dilution; conditions: […], 10^4 organisms, 18 hours at 37°C
Description: as §1

M. hyorhinis ATCC 23234 = test: MIC against Mycoplasma, in vitro agar dilution; assay type: cell-based; conditions: Friis broth solidified with 0.9% agarose, 10^3 to 10^5 C.F.U., 6 days at 37°C
M. suipneumoniae TAM 6N = test: MIC against Mycoplasma, in vitro agar dilution; assay type: cell-based; conditions: Friis broth solidified with 0.9% agarose, 10^3 to 10^5 C.F.U., 6 days at 37°C
S. dublin S7 = test: MIC against Veterinary Bacteria, in vitro agar dilution; conditions: […], 10^4 organisms, 18 hours at 37°C
Description: as §1

M. gallisepticum S6 = test: MIC against Mycoplasma, in vitro agar dilution; assay type: cell-based; conditions: Friis broth solidified with 0.9% agarose, 10^3 to 10^5 C.F.U., 6 days at 37°C
M. suipneumoniae Str. 11 = test: MIC against Mycoplasma, in vitro agar dilution; assay type: cell-based; conditions: Friis broth solidified with 0.9% agarose, 10^3 to 10^5 C.F.U., 6 days at 37°C
[4] = test system: M. hyosynoviae ATCC 25591; test: MIC against Mycoplasma, in vitro agar dilution; assay type: cell-based; conditions: Friis broth solidified with 0.9% agarose, 10^3 to 10^5 C.F.U., 6 days at 37°C
Strep. uberis SPU1 = test: MIC against Veterinary Bacteria, in vitro agar dilution; conditions: […], 10^4 organisms, 18 hours at 37°C
Description: as §1

[5] = test system: M. bovigenitalium ATCC 14173; test: MIC against Mycoplasma, in vitro agar dilution; assay type: cell-based; conditions: Friis broth solidified with 0.9% agarose, 10^3 to 10^5 C.F.U., 6 days at 37°C
M. suipneumoniae HK(2) = test: MIC against Mycoplasma, in vitro agar dilution; assay type: cell-based; conditions: Friis broth solidified with 0.9% agarose, 10^3 to 10^5 C.F.U., 6 days at 37°C
S. typhimurium S18 = test: MIC against Veterinary Bacteria, in vitro agar dilution; conditions: […], 10^4 organisms, 18 hours at 37°C
Description: as §1

[6] = test system: Staph. aureus 152 (pen. sens); test: as above; conditions: […], 10^4 organisms, 18 hours at 37°C
Description: as §1

[7] = test system: Staph. aureus B4 (pen. resistant); test: as above; conditions: […], 10^4 organisms, 18 hours at 37°C
Description: as §1

Strep. dysgalactiae SPD1 = test: as above; conditions: […], 10^4 organisms, 18 hours at 37°C
Description: as §1

Bord. bronchiseptica B08 = test: as above; conditions: […], 10^4 organisms, 18 hours at 37°C
Description: as §1

E. coli NCTC 10418 = test: as above; conditions: […], 10^4 organisms, 18 hours at 37°C
Description: as §1

Past. multocida PA1 = test: as above; conditions: […], 10^4 organisms, 18 hours at 37°C
Description: as §1

Past. haemolytica PA5 = test: as above; conditions: […], 10^4 organisms, 18 hours at 37°C
Description: as §1

Staph. aureus Oxford = test: as above; conditions: […], 10^4 organisms, 18 hours at 37°C
Description: as §1

M. suipneumoniae LABER = test: MIC against Mycoplasma, in vitro agar dilution; assay type: cell-based; conditions: Friis broth solidified with 0.9% agarose, 10^3 to 10^5 C.F.U., 6 days at 37°C
M. dispar NCTC 10125 = test: MIC against Mycoplasma, in vitro agar dilution; assay type: cell-based; conditions: Friis broth solidified with 0.9% agarose, 10^3 to 10^5 C.F.U., 6 days at 37°C
M. suipneumoniae NB12 = test: MIC against Mycoplasma, in vitro agar dilution; assay type: cell-based; conditions: Friis broth solidified with 0.9% agarose, 10^3 to 10^5 C.F.U., 6 days at 37°C
[8] = test system: M. suipneumoniae ATCC 25095; test: MIC against Mycoplasma, in vitro agar dilution; assay type: cell-based; conditions: Friis broth solidified with 0.9% agarose, 10^3 to 10^5 C.F.U., 6 days at 37°C
M. pneumoniae ATCC 15492 = test: MIC against Mycoplasma, in vitro agar dilution; assay type: cell-based; conditions: Friis broth solidified with 0.9% agarose, 10^3 to 10^5 C.F.U., 6 days at 37°C
M. suipneumoniae MS 16 = test: MIC against Mycoplasma, in vitro agar dilution; assay type: cell-based; conditions: Friis broth solidified with 0.9% agarose, 10^3 to 10^5 C.F.U., 6 days at 37°C
[9] = test system: M. suipneumoniae J2206/183^b; test: MIC against Mycoplasma, in vitro agar dilution; assay type: cell-based; conditions: Friis broth solidified with 0.9% agarose, 10^3 to 10^5 C.F.U., 6 days at 37°C
[10] = test system: M. suipneumoniae NCTC 10110; test: MIC against Mycoplasma, in vitro agar dilution; assay type: cell-based; conditions: Friis broth solidified with 0.9% agarose, 10^3 to 10^5 C.F.U., 6 days at 37°C
M. hyorhinis ATCC 25021 = test: MIC against Mycoplasma, in vitro agar dilution; assay type: cell-based; conditions: Friis broth solidified with 0.9% agarose, 10^3 to 10^5 C.F.U., 6 days at 37°C
[11] = test system: Erysipelothrix rhusiopathiae NCTC 8163; test: MIC against Veterinary Bacteria, in vitro agar dilution; conditions: […], 10^4 organisms, 18 hours at 37°C
Description: as §1

M. suipneumoniae UCD 1 = test: MIC against Mycoplasma, in vitro agar dilution; assay type: cell-based; conditions: Friis broth solidified with 0.9% agarose, 10^3 to 10^5 C.F.U., 6 days at 37°C
M. bovis NCTC 10131 = test: microbe, parasite or virus in culture; assay type: cell-based; conditions: Friis broth solidified with 0.9% agarose, 10^3 to 10^5 C.F.U., 6 days at 37°C
Bord. bronchiseptica B09 = test: MIC against Veterinary Bacteria, in vitro agar dilution; conditions: […], 10^4 organisms, 18 hours at 37°C
Description: as §1

For “Methyl 9-[4-(5S-(2S,3S-epoxy-5S-hydroxy-4S-methylhexyl-3R,4R-dihydroxytetrahydropyran-2S-yl)-2,3-dimethylbut-2(E)-enoyloxy]nonanoate [Example 6]”, the “MIC's against E. coli E1” value (E. coli E1) was over 80 µg/mL, the “MIC's against Past. multocida PA2” value (Past. multocida PA2) was 5.0 µg/mL and the “MIC's against M. suipneumoniae PW/C/210” value [1] was 2.5 µg/mL. For the same substance, the “MIC's against Corynebacterium pyogenes CY1” value [2] was over 80 µg/mL, the “MIC's against M. suipneumoniae JF 435” value (M. suipneumoniae JF 435) was 5.0 µg/mL and the “MIC's against Strep. suis (group D) SPS11” value [3] was 10 µg/mL. The “MIC's against M. hyorhinis ATCC 23234” value (M. hyorhinis ATCC 23234) was 1.0 µg/mL, the “MIC's against M. suipneumoniae TAM 6N” value (M. suipneumoniae TAM 6N) was 10.0 µg/mL and the “MIC's against S. dublin S7” value (S. dublin S7) was over 80 µg/mL. For the same substance, the “MIC's against M. gallisepticum S6” value (M. gallisepticum S6) was over 10.0 µg/mL, the “MIC's against M. suipneumoniae Str. 11” value (M. suipneumoniae Str. 11) was 2.5 µg/mL and the “MIC's against M. hyosynoviae ATCC 25591” value [4] was 1.0 µg/mL. For the same substance, the “MIC's against Strep. uberis SPU1” value (Strep. uberis SPU1) was 0.312 µg/mL, the “MIC's against M. bovigenitalium ATCC 14173” value [5] was 0.25 µg/mL and the “MIC's against M. suipneumoniae HK(2)” value (M. suipneumoniae HK(2)) was 10.0 µg/mL. The “MIC's against S. typhimurium S18” value (S. typhimurium S18) was over 80 µg/mL, the “MIC's against Staph. aureus 152 (pen. sens)” value [6] was 2.5 µg/mL and the “MIC's against Staph. aureus B4 (pen. resistant)” value [7] was 1.25 µg/mL. For the same substance, the “MIC's against Strep. dysgalactiae SPD1” value (Strep. dysgalactiae SPD1) was 0.625 µg/mL, the “MIC's against Bord. bronchiseptica B08” value (Bord. bronchiseptica B08) was 40 µg/mL and the “MIC's against E. coli NCTC 10418” value (E. coli NCTC 10418) was over 80 µg/mL. For the same substance, the “MIC's against Past. multocida PA1” value (Past. multocida PA1) was 5.0 µg/mL, the “MIC's against Past. haemolytica PA5” value (Past. haemolytica PA5) was 80 µg/mL and the “MIC's against Staph. aureus Oxford” value (Staph. aureus Oxford) was 0.625 µg/mL. The “MIC's against M. suipneumoniae LABER” value (M. suipneumoniae LABER) was 2.5 µg/mL, the “MIC's against M. dispar NCTC 10125” value (M. dispar NCTC 10125) was 2.5 µg/mL and the “MIC's against M. suipneumoniae NB12” value (M. suipneumoniae NB12) was 2.5 µg/mL. For the same substance, the “MIC's against M. suipneumoniae ATCC 25095” value [8] was 2.5 µg/mL, the “MIC's against M. pneumoniae ATCC 15492” value (M. pneumoniae ATCC 15492) was 10.0 µg/mL and the “MIC's against M. suipneumoniae MS 16” value (M. suipneumoniae MS 16) was 2.5 µg/mL. For the same substance, the “MIC's against M. suipneumoniae J2206/183^b” value [9] was 10.0 µg/mL, the “MIC's against M. suipneumoniae NCTC 10110” value [10] was 10.0 µg/mL and the “MIC's against M. hyorhinis ATCC 25021” value (M. hyorhinis ATCC 25021) was 1.0 µg/mL. The “MIC's against Erysipelothrix rhusiopathiae NCTC 8163” value [11] was over 80 µg/mL, the “MIC's against M. suipneumoniae UCD 1” value (M. suipneumoniae UCD 1) was 10.0 µg/mL and the “MIC's against M. bovis NCTC 10131” value (M. bovis NCTC 10131) was 0.1 µg/mL. For the same substance, the “MIC's against Bord. bronchiseptica B09” value (Bord. bronchiseptica B09) was 5.0 µg/mL.
